Structures can show the parent of a compound that is named as a salt. Where two headings read alike, the source gives them in different places.
Tested on: MV4-11
Experiment: Combined use under low protein content, MTT assay after 48 hours
Type: cell-based, human
Conditions: MV4-11, low protein content

| IC50 (Homo sapiens, read-out: IC50 value of DFP-10917 alone) [nM] | IC50 (read-out: IC50 value of venetoclax alone) [nM] | Compound |
| --- | --- | --- |
| 1530 | – | N#C[C@H]1[C@H](O)[C@@H](CO)O[C@H]1n1ccc(N)nc1=O [DFP-10917, 4-amino-1-(2-cyano-2-deoxy-β-D-arabinofuranosyl)-2(1H)-pyrimidinone monohydrochloride] |
| – | 0.0968 | venetoclax |
